Measured values taken from publication PMC11674800, “Second-Generation Antipsychotics Induce Metabolic Disruption in Adipose Tissue-Derived Mesenchymal Stem Cells Through an aPKC-Dependent Pathway” (Cells, 2024).
Numbered stars: 1 amine (or outer) side, 2 acyl side, 3 side chain; on linkers, the order of the positions; unused ones are H or OH. Bridge positions count the residues as written; N and C are the ends. Square brackets hold non-standard residues; d marks the D form. Peptide text beside a SMILES is read from it. X1 = CC(=O)NC(C(=O)OC(C(C)C)C(N[*:1])C(=O)[*:2])C(O)C(C)C; PhLac = O=C(O)[CH](O)Cc1ccccc1; NMeT = CN[CH](C(=O)O)[CH](C)O; NMeA = CN[CH](C)C(=O)O; NMeDha = C=C(NC)C(=O)O

Assays:
ADSCs [1] = assay: Vacuolization assay; type: cell-based, human; conditions: 5 μM, 4 h
Description: After 4 h, pictures were acquired using a phase contrast microscope (DMi1, Leica, Wetzlar, Germany).

ADSCs [2] = assay: Phospholipidosis assay (LipidTox Green); conditions: 5 μM, 16 h
Description: The cells were stained with 1X LipidTox Green (Thermo Fisher Scientific, Waltham, MA, USA) for 16 h to visualize lipid content. […] The cells were then washed with PBS and fixed with 4% paraformaldehyde for 15 min in the dark.

ADSCs [3] = assay: Acidic vesicle quantification (Lysotracker); type: cell-based, human; conditions: for effect of co-treatment on acidic vesicle accumulation in olanzapine-treated cells / reduction of olanzapine-induced accumulation of acidic vesicles: olanzapine 5 μM; for effect of co-treatment on acidic vesicle accumulation in clozapine-treated cells: clozapine 5 µM; for reduction of olanzapine-induced accumulation of acidic vesicles: plus inhibitor 10 μM
Description: After treatment, the medium was removed, and the cells were stained with 50 nM Lysotracker Deep Red (Invitrogen, Waltham, MA, USA) and 5 μg/mL Hoechst 33342 (Sigma). Staining was conducted in the dark at 37 °C for 30 min. Fluorescence signals were captured using a FLoid Cell Imaging Station (Life Technology, Carlsbad, CA, USA). The ratio of Lysotracker red signal to blue nuclear signal was quantified using ImageJ software. For acidic vesicle rescue experiments, ADSCs were plated at a concentration of 10,000 cells per well in 48-well plates.

3T3L1 cells = assay: PA accumulation in cells transfected with DOCK2-Pii; type: cell-based, mouse; conditions: olanzapine 5 μM, 16 h, plus inhibitor
Description: Transfection was carried out using Lipofectamine 3000 (Thermo Fisher Scientific, Waltham, MA, USA), following the manufacturer’s instructions. The cells were incubated with the plasmid for 24 h to ensure successful transfection and plasmid expression and were used for experiments 48 h post-transfection.

PKCζ = assay: PKC activation (Western blot, P-PKCζ T560 immunofluorescence); type: cell-based, human; conditions: 16 h
Description: (§1) After treatments, whole-cell lysates were prepared using RIPA lysis buffer supplemented with protease inhibitors (AEBSF, aprotinin, bestatin, E-64, EDTA, leupeptin, Sigma-Aldrich, Saint Louis, MO, USA) and orthovanadate (Sigma-Aldrich, Saint Louis, MO, USA). The proteins in the lysates were collected and quantified using the Pierce BCA protein assay kit (Thermo Fisher Scientific, Waltham, MA, USA). Subsequently, the proteins were denatured by heating at 95 °C for 5 min in the presence of 2% Sodium Dodecyl Sulfate (SDS, Sigma-Aldrich, Saint Louis, MO, USA), 150 mM dithiothreitol (DTT, Sigma-Aldrich, Saint Louis, MO, USA), and 0.01% bromophenol blue (Sigma-Aldrich, Saint Louis, MO, USA). The samples were then analyzed using SDS-PAGE (SDS-Polyacrylamide Gel Electrophoresis) and Western blotting (WB).
(§2) For INSRβ endocytosis experiments, the cells were stimulated with 50 ng/mL insulin for 15 min. For transferrin endocytosis experiments, the cells were incubated with 25 μg/mL Transferrin Texas Red for 5 min. After treatment, the cells were washed with PBS and fixed with 4% PFA for 10 min at room temperature, followed by an additional PBS wash. The cells were then permeabilized by incubating them with cold HEPES-Triton X-100 buffer for 5 min at 4 °C. After permeabilization, the cells were incubated with primary antibodies for 30 min, followed by incubation with Alexa Fluor 488- or 546-conjugated secondary antibodies (Invitrogen, Waltham, MA, USA) and phalloidin, labeled with either Alexa Fluor 546 or 633 (Invitrogen Waltham, MA, USA) for 30 min. After incubation, coverslips were mounted on glass slides using a mounting medium. Images were acquired using a confocal microscope (Leica TCS SP8, Wetzlar, Germany) and analyzed using ImageJ (v 1.52a) software in order to quantify and analyze the fluorescence signals.

Gas receptors = system: Gas receptors; set-up: method as in PMID 33152337; conditions: acts as a suramin analog; cited from earlier work
LC3B = assay: Autophagy induction (LC3B Western blot, LAMP1/LC3B colocalization); type: cell-based, human; conditions: 16 h treatment
Description: as §1, §2

ADSCs [4] = conditions: 7 days; 1 to 50 μM
TFEB = TFEB nuclear localization (confocal microscopy); type: cell-based, human; conditions: olanzapine 5 μM plus inhibitor
Description: as §2

CNCCC(Oc1ccc(C(F)(F)F)cc1)c1ccccc1 (centres unmarked) [fluoxetine]
vacuolization induction (ADSCs [1]): prominently observed | phospholipidosis induction (ADSCs [2]): prominently observed

C[C@@H]1C[C@@H]([C@H](O)CC2CC(=O)NC(=O)C2)C(=O)[C@@H](C)C1 [CHX, cycloheximide]
effect of co-treatment on acidic vesicle accumulation (Lysotracker) in both olanzapine- and clozapine-treated cells (ADSCs [3]; SGAs 5 µM, 16 h, plus inhibitor): significant reduction

Cc1nc2sccn2c(=O)c1CCN1CCC(=C(c2ccccc2)c2ccc(F)cc2)CC1 [R59022]
effect of co-treatment on acidic vesicle accumulation in olanzapine-treated cells (ADSCs [3]; 16 h, plus inhibitor): did not affect | effect of co-treatment on PA levels in olanzapine-treated cells (3T3L1 cells): did not affect

CN(C)CCCn1cc(C2=C(c3c[nH]c4ccccc34)C(=O)NC2=O)c2ccccc21 [Go6850]
effect of co-treatment on acidic vesicle accumulation in clozapine-treated cells (ADSCs [3]; 16 h, plus inhibitor): only partially reduced

Cn1cnc(N)c2ncnc1-2 [3-MA, 3-methyladenine]
effect of co-treatment on acidic vesicle accumulation in clozapine-treated cells (ADSCs [3]; 16 h, plus inhibitor): significantly reduced | effect of co-treatment on acidic vesicle accumulation in olanzapine-treated cells (ADSCs [3]; 16 h, plus inhibitor): not seen

C=C1C(=O)NC(C)C(=O)N(C)C(C)C(=O)NC(C(OC(=O)C(NC(C)=O)C(O)C(C)C)C(C)C)C(=O)N(C)C(C(C)OC)C(=O)OC(C)C(NC(C)=O)C(=O)OC(Cc2ccccc2)C(=O)N1C (centres unmarked) [YM254890] (Ac-T[PhLac][NMeDha]A[NMeA][X1][NMeT](Me); ester 1-C; configuration not given here)
effect of co-treatment on acidic vesicle accumulation in olanzapine-treated cells (ADSCs [3]; 16 h, plus inhibitor): strongest effect | reduction of olanzapine-induced accumulation of acidic vesicles (ADSCs [3]; 16 h): at least 50% | PKCζ phosphorylation in olanzapine-treated cells, co-treatment (PKCζ; olanzapine 5 μM, plus inhibitor): diminished | effect of co-treatment on PA levels in olanzapine-treated cells (3T3L1 cells): markedly reduced | concentrations blocking Gas receptors (Gas receptors): below 10 μM

CC1CCc2c(cc(Br)c(F)c2Br)N1C=O (centres unmarked) [CE3F4]
reduction of olanzapine-induced accumulation of acidic vesicles (ADSCs [3]; 16 h): at least 50% | effect of co-treatment on PA levels in olanzapine-treated cells (3T3L1 cells): markedly reduced

O=C(NCCN1CCC(n2c(=O)[nH]c3ccccc32)CC1)c1cc2cc(F)ccc2[nH]1 [FIPI]
effect of co-treatment on acidic vesicle accumulation in olanzapine-treated cells (ADSCs [3]; 16 h, plus inhibitor): significantly reduced | effect of co-treatment on PA levels in olanzapine-treated cells (3T3L1 cells): significantly reduced

CN1CCN(C2=Nc3cc(Cl)ccc3Nc3ccccc32)CC1 [clozapine]
acidic compartment accumulation (Lysotracker staining) (ADSCs [3]; 0.5-10 µM, 24 h, 72 h, 7 days): progressive time- and dose-dependent increase | concentrations at which acidic compartment accumulation was observed (ADSCs [3]; ADSCs): below 1 µM | vacuolization induction (ADSCs [1]): absent | colocalization of LAMP1 with LC3B (LC3B): increased colocalization | conversion of LC3B-I to LC3B-II (LC3B): significantly increased | canonical PKCs (cPKCs) and atypical PKCζ activation state (PKCζ; 5 μM, Western blot): activation | concentrations showing significant toxicity (ADSCs [4]): above 25 μM

Nc1ncnc2c1ncn2C1CCCO1 (centres unmarked) [SQ22]
reduction of olanzapine-induced accumulation of acidic vesicles (ADSCs [3]; 16 h): at least 50%

Cc1ccc(C(=O)Nc2ccc(S(=O)(=O)O)c3cc(S(=O)(=O)O)cc(S(=O)(=O)O)c23)cc1NC(=O)c1cccc(NC(=O)Nc2cccc(C(=O)Nc3cc(C(=O)Nc4ccc(S(=O)(=O)O)c5cc(S(=O)(=O)O)cc(S(=O)(=O)O)c45)ccc3C)c2)c1 [suramin]
reduction of olanzapine-induced accumulation of acidic vesicles (ADSCs [3]; 16 h): at least 50%

CN1CCN(C(=O)C2C(C(=O)O)[C@H]3CC[C@@H]2O3)CC1 (some centres unmarked) [LB100]
effect of co-treatment on acidic vesicle accumulation in olanzapine-treated cells (ADSCs [3]; 16 h, plus inhibitor): significant reduction | effect of co-treatment on TFEB nuclear localization induced by olanzapine (TFEB): complete abrogation

CC(C)(C)c1ccc(C(=O)CCCN2CCC(OC(c3ccccc3)c3ccccc3)CC2)cc1 [ebastine]
vacuolization induction (ADSCs [1]): prominently observed
